The target in one assay is T1, mT2R5 (C57BL/6-allele) (Mus musculus, UniProt Q9JKT4, G155D/I85V/L294R/T101A/T44I).
T1 construct: expressed in transfected cells; host or cells: modified HEK-293 cells (PEAKrapid) expressing Gα15
T1 sequence (Q9JKT4 1-300 T44I/I85V/T101A/G155D/L294R): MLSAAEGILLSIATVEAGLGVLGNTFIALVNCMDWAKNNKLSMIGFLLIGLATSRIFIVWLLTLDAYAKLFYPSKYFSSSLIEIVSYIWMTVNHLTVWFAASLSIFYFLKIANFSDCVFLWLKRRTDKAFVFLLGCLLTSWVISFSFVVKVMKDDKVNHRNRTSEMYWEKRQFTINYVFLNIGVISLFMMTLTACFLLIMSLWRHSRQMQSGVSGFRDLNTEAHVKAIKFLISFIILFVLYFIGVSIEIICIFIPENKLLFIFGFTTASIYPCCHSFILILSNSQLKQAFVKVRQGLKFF
Nature of the assay: FURA-2 [Ca2+]i imaging in HEK-293 cells expressing Gα15 and rho-mT2R5 from non-taster strain (C57BL/6 allele). It is filed as cell-based. The method, then: A bridge overlap PCR extension technique was used to generate rho-T2R chimeras, which contain the first 39 amino acids of bovine rhodopsin in frame with human and rodent T2R coding sequences (Mehta and Singh, Biotechniques 26:1082-1086 (1999). All receptors were cloned into a pEAK10 mammalian expression vector (Edge Biosystems, MD). Modified HEK-293 cells (PEAK^rapid cells; Edge BioSystems, MD) were grown and maintained at 37° C. in UltraCulture medium (Bio Whittaker) supplemented with 5% fetal bovine serum, 100 μg/ml Gentamycin sulphate (Fisher), 1 μg/ml Amphotericin B and 2 mM GlutaMax I (Lifetechnologies). […]
Transfected cells were washed once in Hank's balanced salt solution with 1 mM sodium pyruvate and 10 mM HEPES, pH 7.4 (assay buffer), and loaded with 2 μM FURA-2 AM (Molecular Probes) for 1 h at room temperature. […] [Ca^2+]i changes were monitored using a Nikon Diaphot 200 microscope equipped with a 10×/0.5 fluor objective with the TILL imaging system (T.I.L.L Photonics GmbH). Acquisition and analysis of the fluorescence images used TILL-Vision software. Generally, [Ca^2+]i was measured for 80-120 s by sequentially illuminating cells for 200 ms at 340 nm and 380 nm and monitoring the fluorescence emission at 510 nm using a cooled CCD camera. The F340/F380 ratio was analyzed to measure [Ca^2+]i. […]

Assay [1] deals with Cyx taster and non-taster mouse strains. Conditions: cited from earlier work; for taste behaviour: non-taster strains.
The target in assay [2] is T2, mT2R5 coupling to Gαs, Gαi, Gαq or Gαo (Mus musculus, UniProt Q9JKT4).
T2 construct: infectious Bacmid containing rhodopsin tagged mT2R5 (DBA/2-allele) was produced using the Bac-to-Bac system; rhodopsin tag (rho); made in house; host or cells: insect larval cells infected with recombinant Bacmid (Bac-to-Bac); membrane preparation
T2 sequence (Q9JKT4 1-300): T1 sequence (Q9JKT4 1-300 T44I/I85V/T101A/G155D/L294R) with I44T, V85I, A101T, D155G, R294L
Nature of the assay: Tastant-induced GTPγS binding to other G-protein α-subunits with mT2R5 membranes. It is filed as biochemical. The procedure:
To investigate the selectivity of T2R-G-protein coupling, mT2R5 was chosen for study because its activation by cycloheximide recapitulates mouse taste responses. Rho-tagged mT2R5 and gustducin were prepared using a baculovirus expression system. mT2R5-containing membranes were incubated with various purified G-proteins, including gustducin, and measured tastant-induced GTP-γS binding (Hoon et al., Biochem J 309:629-636 (1995)). Specifically, infectious Bacmid containing rhodopsin tagged mT2R5 (DBA/2-allele) was produced using the Bac-to-Bac system (Lifetechnologies, MD). Insect larval cells were infected for 60 h with recombinant Bacmid and membranes were prepared as described previously (Ryba and Tirindelli, J Biol Chem, 270:6757-6767 (1995)). Peripheral proteins were removed by treatment with 8 M urea and membranes were resuspended in 10 mM HEPES pH7.5, 1 mM EDTA and 1 mM DTT. The expression of rho-mT2R5 was assessed by Western blot using mAb B6-30 and quantitated by comparison with known amounts of rhodopsin. Approximately 300 pmol of rho-mT2R5 could be obtained from 2×10^8 infected cells. […] Receptor-catalyzed exchange of GDP for GTPγS on gustducin and other G-protein α-subunits was measured in the presence of 10 nM rho-mT2R5, 100 μM GDP, and 20 μM Gβ1γ8. […]

SMILES strings stand for the structures. Substitutions are numbered along the chain they refer to. pEC50: −log10 of the molar value. Where two headings read alike, the source gives them in different places.

For the compound `C[C@@H]1C[C@@H]([C@H](O)CC2CC(=O)NC(=O)C2)C(=O)[C@@H](C)C1` [cycloheximide], at mT2R5 (C57BL/6-allele), the pEC50 is approximately 5.64 and the “dose response compared with receptor from taster strains” value was “shift in cycloheximide sensitivity”. For the same compound, the avoidance threshold in assay [1] (Cyx taster strains) is 0.25. Further, in assay [1] (at 8 μM), the taste behaviour result was “strongly avoid”. Further, in assay [1] (at 1), the taste behaviour result is on record as “non-tasters”. Besides, in assay [1] (non-tasters vs taster strains), the decrease in sensitivity was approximately 8 fold. For the same compound, in assay [1] (rodents), the sensitivity threshold was approximately 0.25 µM. Besides, the “coupling of mT2R5 to other G-proteins” value in assay [2] is “no coupling”.

(Values after patent US9817000B2, “Method for identifying compounds that modulate a T2R taste receptor” (The Regents of the University of California, priority 1999, dated 2017).)
